Measurements taken from ChEMBL document CHEMBL3272262, “Basic derivatives of 6,7-dihydroindolo(1,7-ab)(1) benzazepine and 6H-indolo(7,1-cd)(1,5) benzoxazepine as potential antidepressant agents” (J Med Chem, 1976).
Converted amounts (≈) assume the structure as drawn.

Tests used:
Mus musculus [1] = experiment: Antidepressant activity in po dosed Swiss mouse assessed as reversal of reserpine-induced ptosis administered 1 hr prior to reserpine challenge; type: functional
Mus musculus [2] = experiment: Antidepressant activity in po dosed Swiss mouse assessed as reversal of reserpine-induced hypothermia measured over 5 hrs; type: functional
Ileum [3] = experiment: Antispasmodic activity in guinea pig ileum assessed as inhibition of acetylcholine-induced spasm; type: functional; settings: Cavia porcellus, read-out: ED50 (the source's name)
Ileum [4] = experiment: Antispasmodic activity in guinea pig ileum assessed as inhibition of histamine-induced spasm; type: functional; settings: Cavia porcellus, read-out: ED50 (the source's name)
[5] = Acute toxicity in po dosed Swiss mouse assessed as mortality after 7 days; type: organism-based; settings: in vivo
Mus musculus [6] = experiment: Toxicity in po dosed Swiss mouse assessed as behavioral changes; type: organism-based; settings: in vivo

Row | SMILES | MED50 (Mus musculus [1]) [mg/kg] | MED50 (Mus musculus [2]) [mg/kg] | EC50 (Ileum [3]) [µg/mL] | EC50 (Ileum [4]) [µg/mL] | LD50 at 168 h [5] [mg/kg] | Activity (Mus musculus [6])
1 | CN(C)CCc1cc2cccc3c2n1-c1ccccc1OC3.Cl | 3 | 50 | 10 | 1 | 195 | Non-toxic
2 | CNCCc1cc2cccc3c2n1-c1ccccc1CC3.Cl | 1 | 2.5 | 4 | 0.6 | 410 | Non-toxic
3 | CNCCc1c(C)c2cccc3c2n1-c1ccccc1CC3.Cl | 2.5 | >50 | 6 | 5 | 390 | Non-toxic
4 | CN(C)Cc1c(-c2ccccc2)n2c3c(cccc13)CCc1ccccc1-2 | >50 | >50 |  |  | 1600 | Non-toxic
5 | Cl.c1ccc(CN(CCc2cc3cccc4c3n2-c2ccccc2CC4)Cc2ccccc2)cc1 | 50 | > 50 | > 10 | > 10 | 1400 | Non-toxic
6 | CN(C)Cc1cn2c3c(cccc13)CCc1ccccc1-2.Cl | >50 | >50 |  |  | 170 | Non-toxic
7 | Cc1c(CN(C)C)c2cccc3c2n1-c1ccccc1CC3 | >50 | >50 |  |  | 450 | Non-toxic
8 | Cc1c(CCN(C)C)n2c3c(cccc13)CCc1ccccc1-2 | 7.5 | >50 | > 10 | > 10 | 195 | Non-toxic
9 | CN(C)CCCN1c2ccccc2CCc2ccccc21 [IMIPRAMINE] | 2.5 | 2.5 | 0.3 (≈ 1.07 µM) | 0.006 (≈ 0.0214 µM) |  | 
10 | CN(C)CCc1c(-c2ccccc2)c2cccc3c2n1-c1ccccc1CC3 | >50 | >50 |  |  | 1900 | Non-toxic
11 | CN(C)Cc1cc2cccc3c2n1-c1ccccc1CC3 | >50 | >50 |  |  | 210 | Non-toxic
12 | CN(C)CCc1cc2cccc3c2n1-c1ccccc1CC3 | 2 | 5 | 1 (≈ 3.44 µM) | 0.2 (≈ 0.689 µM) | 420 | Non-toxic
13 | Cc1c(CCN(C)C)n2c3c(cccc13)COc1ccccc1-2.Cl | 10 | >50 |  |  | 310 | Non-toxic
14 | CN(CCc1cc2cccc3c2n1-c1ccccc1CC3)Cc1ccccc1.Cl [AZIPRAMINE HYDROCHLORIDE] | 3.5 | 5 | > 5 | > 5 | > 4000 | Non-toxic
15 | Cc1c(CCN(C)Cc2ccccc2)n2c3c(cccc13)CCc1ccccc1-2.Cl | >50 | >50 |  |  | > 4000 | Non-toxic
